Results from patent publication US20110224197A1, “PYRIMIDINES AND PYRIDINES USEFUL AS INHIBITORS OF PROTEIN KINASES” (Vertex Pharmaceuticals Incorporated, priority 2008, published 2011).

Experiments:
GSK-3 α/β pTYR = assay: pTYR biomarker analysis in brain, Post Stroke Model I; format: in vivo, rat; settings: all doses, termination of study
Description: To track the activity of Compound I-3 in the CNS of rats subjected to MCAO, brains were removed and protein lysate was obtained as described above from both vehicle treated and compound treated animals at the termination of the study. Lysates were analyzed by Western blot and probed for GSK-3 α/β pTYR levels.

β-catenin [1] = assay: Biomarker for leukocytopenia: β-catenin in PBMC; format: in vivo, mice; settings: all doses
[2] = system: embolic occlusion of the middle cerebral artery (MCAO) in the rat; assay: Post Stroke Recovery Model I (embolic MCAO); format: in vivo
Description: This study investigates the effect of compounds on volume of cerebral infarction, cell proliferation, and functional recovery after embolic occlusion of the middle cerebral artery (MCAO) in the rat.
Ten Rats, subjected to MCAO (Zhang R L, et. al., 1997 # 1), were randomly assigned to either Vehicle or Compound I-3 after MCAO. The treatment was administered once daily orally starting 24 hours after MCAo for 14 days. 5-bromo-2-deoxyuridine (BrdU, Sigma; 100 mg/kg, i.p.) is administered at 1 day after MCAO, and consecutively for 6 days. Functional assessments are performed before MCAO and at day 1, day 7 and day 14 after MCAO by an investigator who is blinded to the study. The assessment included Neurological Severity Score (mNSS) and Adhesive removal test score, described below. A total of twenty rats are sacrificed at 14 days after MCAO. Three contralateral hemispheres of each group are assigned for analysis. Volume of infarction and cell proliferation in the ipsilateral subventricular zone (SVZ) are measured.
Rats are tested for left forelimb somatosensory deficit with the adhesive removal test (Schallert T, et. al., 1984 # 3). Each animal received 3 trials by placing round strips of packing tape (1.2 cm in diameter) at each testing day and the mean time (seconds) required to remove stimuli from the left forelimb is was recorded.
All the animals are anesthetized with ketamine (44 mg/kg IM) and xylazine (13 mg/kg IM) and sacrificed at fourteen days after MCA occlusion. […] Infarct volumes are measured using a Global Lab Image analysis program (Data Translation). The area of both hemispheres and the area containing the ischemic neuronal damage (mm^2) are calculated by tracing the area on the computer screen. The lesion volume […] is determined by multiplying the appropriate area by the section interval thickness (Chen H, et al., 1992, # 4). […]
To visualize specificity of the immunohischemical reaction, immunostaining of BrdU (a monoclonal antibody against BrdU, 1:100, DAK) is employed. […] BrdU-immunoreactive nuclei in the SVZ are counted on a computer monitor to improve visualization. […]

GSK-3α/β pTYR = assay: Biomarker for leukocytopenia: pTYR in PBMC (Western blot); format: in vivo, mice; settings: all doses
Description: To track the activity of Compound (I-3) in mice subjected to 5-FU treatment, peripheral blood was removed at time of sacrifice from both compound and vehicle-treated mice and a protein lysate was obtained from peripheral blood mononuclear cells (PBMC) after removal of red blood cells. Lysates were analyzed by Western blot and probed for GSK-3α/β pTYR levels.

[3] = system: 5-FU treated C57BL/6 mice; assay: Leukocytopenia animal model (5-FU); format: in vivo
Excerpt: This study evaluates the hematopoietic recovery of peripheral blood and bone marrow cells following treatment with 5-FU (a myeloablative reagent) and compares the recoveries of various doses of the test compound with a cytokine known to enhance recovery rhG-CSF. The introduction of the chemotherapeutic agent causes a decrease in the peripheral blood white blood cell count and in particular, the neutrophil count. […] 5-FU acts by killing all the dividing cells, sparing primitive stem cells which are relatively quiescent and are thus not impacted by the treatment. Following treatment, primitive cells are recruited to proliferate and differentiate, thus re-establishing normal peripheral blood and femoral cell counts. This model may be used to evaluate compounds that could facilitate the recruitment and proliferation of the primitive cells and assess the kinetics of recovery of bone marrow as well as mature cell populations (white blood cells, red blood cells and platelets) in the blood.
One hundred and five C57BL/6 mice at 6-8 weeks of age were purchased from Jackson Labs. All, with the exception of the 4 untreated control mice were treated with 150 mg/kg 5-Fluorouracil (5-FU) interperitoneal (ip) at day 0. The four untreated mice (Group 1) were sacrificed on day 12 and they represent the “normal variability in blood and cell counts”. The 5-FU treated mice were divided equally into 4 distinct groups (Groups 2, 3, 4 and 5). On day −1 (the day before treatment with 5-FU) through to day 12, the mice in group 2 were treated at 8 a.m. and 6 p.m. with just solvent (20% PEG 400/10% Vitamin E TPGS/70% water) and served as the solvent control for groups 4 and 5.
Four mice from this group were sacrificed on days 4, 6, 8, 10 and 12 following the final dose of solvent the morning before sacrificing. On days 1 through 4, the mice in group three were dosed with 50 ug/kg rhG-CSF twice daily with 6 hours separating the daily doses. Four mice from this group were also sacrificed on days 4, 6, 8, 10 and 12. For treatment of test compound, groups 4 and 5, dosing was done as indicated above with the solvent control (2 times daily at 8 am and 6 pm) with compound that was prepared fresh each day.
Compound I-3 was weighed out into 13 vials and an appropriate amount of solvent added to achieve a final concentration for dosing at 30 mg/Kg (high dose). The compound was solubilized by sonication in solvent for 2-3 minutes and then 30% of the volume removed and diluted 1:3 with solvent to prepare compound for dosing at 10 mg/Kg (low dose). This was done daily and delivered to the animal technologist at 1 pm for the evening and next morning dosing. The unused compound was returned and frozen the next day when the freshly prepared sample for the next doses delivered. On days 1 through 12, mice in group 4 received the low dose of compound ([…]) and mice in group 5 received the high dose of compound (30 mg/Kg) twice daily. Four mice were sacrificed for each group on days 4, 6, 8, 10 and 12.
Each time mice were sacrificed from any of the groups, peripheral blood was collected in EDTA microtainer tubes by cardiac puncture. Approximately 400 uL of the blood was sent for analysis of blood indices (WBC, ANC, platelets, hemoglobin and hematocrit) at a central veterinary service laboratory using an automated system. The remainder of the blood was sent to STI where the plasma was separated by centrifugation at 8000 r.p.m. for 10 minutes and stored at −80° C. for future bioassays. Both femurs were also harvested and cells extracted and processed. The femoral cells were counted, red blood cells lysed and the cells subsequently prepared (at 5×10^6 cells/100 uL in Laemmli buffer and an equivalent unprocessed cell pellet) and stored at −80° C. for future protein analyses. Also on day 12, when the animals were sacrificed, their livers were removed and stored in 10% neutral formalin for future analysis. […]

β-catenin [4] = assay: β-catenin in brain, Post Stroke Model I; format: in vivo, rat; settings: all doses
[5] = system: transient middle cerebral artery occlusion (MCAO) in rats; settings: after transient MCAO; cited from earlier work
[6] = once daily orally starting 24 hours after MCAo for 14 days

## Cc1nc(-c2ccccc2Cl)nc(Nc2n[nH]c3ccc(F)cc23)c1C [Compound I-3]
GSK-3 α/β pTYR
  pTYR signal compared to vehicle treated rats: significant reduction
β-catenin [1]
  induction of β-catenin: no induction
[2]; 14 days after MCAO
  number of BrdU positive cells in the ipsilateral SVZ compared with vehicles: significantly (p<0.05) increased
[2]; [6]
  adhesive removal test compared with vehicle group: significant (p<0.05) improvement
  mNSS test compared with vehicle group: significant (p<0.05) improvement
GSK-3α/β pTYR
  pTYR signal compared to vehicle treated animals: significant reduction
[3]; 5-FU + Compound I-3 10 mg/Kg twice daily
  WBC nadir (lowest cell count observed): 4 days
[3]; 5-FU + Compound I-3 30 mg/Kg twice daily
  WBC nadir (lowest cell count observed): 4 days
[3]; 5-FU + high dose (30 mg/Kg twice daily)
  kinetics of the WBC and ANC recovery: enhanced
[3]; 5-FU + high dose of test compound
  Bone marrow cellularity: recovery to normal values: 10 days
[3]; 5-FU and high dose, day 8
  bone marrow cell counts versus 5-FU and rhG-CSF: significantly higher
[3]; 5-FU and high dose, versus other groups
  bone marrow cellularity nadir: did not have as low a nadir as other groups
[3]; 5FU + high dose, day 8
  Platelet counts: soared above the reference ranges
[3]; Group 5 (high dose) versus Groups 3 and 4
  kinetics of bone marrow cellular recovery: fastest
[3]; high dose
  WBC and ANC recovery compared to 5-FU and rhG-CSF: comparable
[3]; high dose, days 8 and 10
  WBC and ANC recovery compared to 5-FU and solvent control: significantly increased
β-catenin [4]
  induction of β-catenin: no induction

## IGF-1: insulin growth factor-1, a known GSK-3 inhibitor
[5]
  infarct size in rat brains: reduced infarct size

B1: rhG-CSF: recombinant human granulocyte colony stimulating factor; a cytokine known to enhance recovery (protein, UniProt P09919 31-207, looked up)
Granulocyte …: TPLGPASSLPQSFLLKCLEQVRKIQGDGAALQEKLVSECATYKLCHPEELVLLGHSLGIPWAPLSSCPSQALQLAGCLSQLHSGLFLYQGLLQALEGISPELGPTLDTLQLDVADFATTIWQQMEELGMAPALQPTQGAMPAFASAFQRRAGGVLVASHLQSFLEVSYRVLRHLAQP
[3]; 5-FU + rhG-CSF 50 ug/kg twice daily
  ANC nadir: 4 days
[3]; 5-FU + rhG-CSF 50 ug/kg twice daily, days 1 through 4
  WBC nadir (lowest cell count observed): 4 days
[3]; 5-FU + rhG-CSF, day 8
  Platelet counts: soared above the reference ranges
[3]; 5-FU + rhG-CSF, days 4 and 6
  actual neutrophil counts (ANC): almost non-detectable levels
